{
  "source": "paper PMC6952396",
  "about": "“Structural basis for itraconazole-mediated NPC1 inhibition” (Nature Communications, 2020)",
  "tested_on": "T1, wild-type human NPC1",
  "T1 construct": "expressed in transfected cells; host or cells: HEK-293S GnTI- cells (ATCC, CRL-3022), PEI transfection",
  "test": "Cross-linking of P-X to NPC1 in intact HEK-293S GnTI- cells overexpressing NPC1",
  "type": "cell-based",
  "settings": "for inhibition of P-X cross-linking to WT NPC1 in intact cells: 0.3 μM P-X and 3 μM competitor, 1 h at 37 °C",
  "excerpt": "pNPC1 encoding wild-type human NPC1 (amino acids 1–1278) followed sequentially by three tandem copies of the Flag epitope tag ([…]) was constructed into pcDNA3.1. Expression is achieved with the cytomegalovirus (CMV) promoter. Point mutations were introduced into the coding region of pNPC1 by site-directed mutagenesis using the QuikChange II XL Site-Directed Mutagenesis Kit (Agilent Technologies, Santa Clara, CA) and primers which are indicated in Supplementary Table 2. The coding region of each plasmid was sequenced to ensure integrity of the construct.\nFor cross-linking of P-X to NPC1 and mutants in intact cells, the mammalian HEK-293S GnTI^- cells (ATCC, CRL-3022) overexpressing NPC1 and mutants were set up in 500 mL of freestyle medium with 2% FCS at a density of 2 × 10^6 cells per ml. The cells were transfected with 0.5 mg of the indicated plasmid using PEI (Polysciences) as the transfection agent. After 48 h, cell culture was aliquoted to 10 cm dishes. Each dish received a direct addition of DMSO (final concentration, 0.2%) containing 0.3 μM P-X and 3 μM of various competitor compounds as described in the figure legends. After incubation for 1 h at 37 °C in the dark and without a change of media, the cells were irradiated for 10 min at room temperature under 306-nm UV light (Atlanta Light Bulb Co.) in a UV Stratalinker 2400 apparatus (Stratagene). Cells were subjected to centrifugation at 4000 g for 5 min. The pellet was washed once with PBS and then solubilized with 1 mL of buffer containing 50 mM Hepes pH 7.5, 150 mM NaCl, 1%(wt/vol) n-Dodecyl-β-D-maltopyranoside (DDM, Anatrace). Each solubilized lysate was incubated at room temperature for 1 h, and clarified by centrifugation at 15000 g for 1 min. The supernatant was then transferred to a fresh tube and incubated with anti-FLAG M2 magnetic beads for 1 h. After which the beads were applied to a magnet, washed three times with 1 mL of wash buffer containing 50 mM Hepes pH 7.5, 150 mM NaCl, 0.02% (wt/vol) DDM, and eluted with 100 μL of wash buffer containing 15 μg of 3x FLAG peptide. The purified protein was then tagged with Alexa Fluor 532 using click chemistry as described above. An aliquot of each sample was subjected to 8% SDS/PAGE, and fluorescent-labeled proteins were visualized by in-gel fluorescence as described above. After scanning the gel, the proteins were transferred to nitrocellulose and blotted with mouse monoclonal anti-Flag.",
  "data": [
    {"smiles": "C#CCOc1ccc(C(=O)c2ccc(C(=O)OC(C)C(CC)n3ncn(-c4ccc(N5CCN(c6ccc(OCC7COC(Cn8cncn8)(c8ccc(F)cc8F)O7)cc6)CC5)cc4)c3=O)cc2)cc1", "note": "(stereo not shown) [P-X]", "values": [
      {"measurement": "cross-linking of P-X to WT NPC1 in intact cells", "setting": "0.3 μM P-X", "result": "can easily cross-link"}
    ]},
    {"smiles": "CC(=O)N1CCN(c2ccc(OCC3COC(Cn4ccnc4)(c4ccc(Cl)cc4Cl)O3)cc2)CC1", "note": "(stereo not shown) [Ketoconazole, ketoconazole]", "values": [
      {"measurement": "inhibition of P-X cross-linking to WT NPC1 in intact cells", "result": "could not inhibit"},
      {"measurement": "inhibition of P-X cross-linking to WT NPC1 in intact cells", "setting": "listed as ketoconazole", "result": "does not"}
    ]},
    {"smiles": "CCC(C)n1ncn(-c2ccc(N3CCN(c4ccc(OCC5COC(Cn6cncn6)(c6ccc(Cl)cc6Cl)O5)cc4)CC3)cc2)c1=O", "note": "(stereo not shown) [Itraconazole mixture, itraconazole]", "values": [
      {"measurement": "inhibition of P-X cross-linking to WT NPC1 in intact cells", "result": "inhibits this reaction"}
    ]}
  ]
}
